pEC50: −log10 of the molar value. Where “and” joins values, the source holds several entries; their conditions need not be identical. Identical values can stand only once. Like-named read-outs stand apart in the source and are kept apart here.
Target: hCB2 (Homo sapiens, UniProt P34972)
Experiment: bioSensAll ebBRET signaling profiling, hCB2
Format: cell-based
Design: host or cells: HEK293SL cells, transient PEI transfection
Conditions: for G13 hCB2 / G15 hCB2 / Gq hCB2 / Gs hCB2: raw signal; for pEC50: read-out: EC50 [95% CI]; for Emax: normalized to CP-55,940

Chain of hCB2 (P34972 whole entry): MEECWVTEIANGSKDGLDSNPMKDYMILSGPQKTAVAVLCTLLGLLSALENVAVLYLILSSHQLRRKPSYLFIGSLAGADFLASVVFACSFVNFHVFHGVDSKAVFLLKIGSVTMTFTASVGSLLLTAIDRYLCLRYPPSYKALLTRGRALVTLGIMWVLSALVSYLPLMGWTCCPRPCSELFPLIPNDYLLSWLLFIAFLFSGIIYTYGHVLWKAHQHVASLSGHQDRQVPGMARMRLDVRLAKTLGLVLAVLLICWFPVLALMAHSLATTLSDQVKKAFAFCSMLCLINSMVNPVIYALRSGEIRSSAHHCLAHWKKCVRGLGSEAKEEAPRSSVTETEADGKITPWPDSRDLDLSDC

Q: How did the “G13 hCB2” value (Log [Compound] (M) -5.05788) turn out when `COC(=O)C(C)(NC(=O)c1cc(C)n(-c2cccc(C(F)(F)F)c2)n1)c1cccs1` (stereo not drawn) [‘4042] was run?
A: 372

Q: What about the “G15 hCB2” value (Log [Compound] (M) -5.05788) of the same compound?
A: 871

Q: What about the “Gq hCB2” value (Log [Compound] (M) -5.05788) of the same compound?
A: 1851

Q: And the “Gs hCB2” value (Log [Compound] (M) -5.05788)?
A: 9765

Q: What about the “G13 hCB2” value (Log [Compound] (M) -5.47381) of the same compound?
A: 454

Q: What about the “G15 hCB2” value (Log [Compound] (M) -5.47381) of the same compound?
A: 873

Q: What about the “Gq hCB2” value (Log [Compound] (M) -5.47381) of the same compound?
A: 1786

Q: What about the “Gs hCB2” value (Log [Compound] (M) -5.47381) of the same compound?
A: 9415

Q: And the “G13 hCB2” value (Log [Compound] (M) -5.89285)?
A: 417

Q: And the “G15 hCB2” value (Log [Compound] (M) -5.89285)?
A: 919

Q: What about the “Gq hCB2” value (Log [Compound] (M) -5.89285) of the same compound?
A: 1814

Q: And the “Gs hCB2” value (Log [Compound] (M) -5.89285)?
A: 9299

Q: What about the “G13 hCB2” value (Log [Compound] (M) -6.31878) of the same compound?
A: 379

Q: What about the “G15 hCB2” value (Log [Compound] (M) -6.31878) of the same compound?
A: 911

Q: What about the “Gq hCB2” value (Log [Compound] (M) -6.31878) of the same compound?
A: 1840

Q: What about the “Gs hCB2” value (Log [Compound] (M) -6.31878) of the same compound?
A: 9425

Q: And the “G13 hCB2” value (Log [Compound] (M) -6.72585)?
A: 366

Q: What about the “G15 hCB2” value (Log [Compound] (M) -6.72585) of the same compound?
A: 869

Q: And the “Gq hCB2” value (Log [Compound] (M) -6.72585)?
A: 1780

Q: What about the “Gs hCB2” value (Log [Compound] (M) -6.72585) of the same compound?
A: 9320

Q: And the “G13 hCB2” value (Log [Compound] (M) -7.14267)?
A: 378

Q: What about the “G15 hCB2” value (Log [Compound] (M) -7.14267) of the same compound?
A: 865

Q: What about the “Gq hCB2” value (Log [Compound] (M) -7.14267) of the same compound?
A: 1798

Q: What about the “Gs hCB2” value (Log [Compound] (M) -7.14267) of the same compound?
A: 9628

Q: And the “G13 hCB2” value (Log [Compound] (M) -7.55284)?
A: 351

Q: What about the “G15 hCB2” value (Log [Compound] (M) -7.55284) of the same compound?
A: 908

Q: What about the “Gq hCB2” value (Log [Compound] (M) -7.55284) of the same compound?
A: 1838

Q: And the “Gs hCB2” value (Log [Compound] (M) -7.55284)?
A: 9429

Q: And the “G13 hCB2” value (Log [Compound] (M) -8)?
A: 336

Q: And the “G15 hCB2” value (Log [Compound] (M) -8)?
A: 870

Q: And the “Gq hCB2” value (Log [Compound] (M) -8)?
A: 1691

Q: And the “Gs hCB2” value (Log [Compound] (M) -8)?
A: 9233

Q: And the “G13 hCB2” value (Log [Compound] (M) -8.22186)?
A: 337

Q: What about the “G15 hCB2” value (Log [Compound] (M) -8.22186) of the same compound?
A: 953

Q: And the “Gq hCB2” value (Log [Compound] (M) -8.22186)?
A: 1914

Q: And the “Gs hCB2” value (Log [Compound] (M) -8.22186)?
A: 10090

Q: What about the “G13 hCB2” value (Log [Compound] (M) -8.39794) of the same compound?
A: 386

Q: And the “G15 hCB2” value (Log [Compound] (M) -8.39794)?
A: 901

Q: What about the “Gq hCB2” value (Log [Compound] (M) -8.39794) of the same compound?
A: 1867

Q: And the “Gs hCB2” value (Log [Compound] (M) -8.39794)?
A: 9624

Q: And the “G13 hCB2” value (Log [Compound] (M) -8.68787)?
A: 351

Q: What about the “G15 hCB2” value (Log [Compound] (M) -8.68787) of the same compound?
A: 876

Q: And the “Gq hCB2” value (Log [Compound] (M) -8.68787)?
A: 1937

Q: And the “Gs hCB2” value (Log [Compound] (M) -8.68787)?
A: 9194

Q: And the “G13 hCB2” value (Log [Compound] (M) -9.15521)?
A: 367

Q: And the “G15 hCB2” value (Log [Compound] (M) -9.15521)?
A: 910

Q: What about the “Gq hCB2” value (Log [Compound] (M) -9.15521) of the same compound?
A: 1811

Q: And the “Gs hCB2” value (Log [Compound] (M) -9.15521)?
A: 9196

Q: And the “G13 hCB2” value (Log [Compound] (M) -9.61989)?
A: 345

Q: What about the “G15 hCB2” value (Log [Compound] (M) -9.61989) of the same compound?
A: 880

Q: And the “Gq hCB2” value (Log [Compound] (M) -9.61989)?
A: 1785

Q: And the “Gs hCB2” value (Log [Compound] (M) -9.61989)?
A: 9153

Q: What about the “G13 hCB2” value (Log [Compound] (M) -10.0969) of the same compound?
A: 341

Q: And the “G15 hCB2” value (Log [Compound] (M) -10.0969)?
A: 856

Q: What about the “Gq hCB2” value (Log [Compound] (M) -10.0969) of the same compound?
A: 1790

Q: And the “Gs hCB2” value (Log [Compound] (M) -10.0969)?
A: 9401

Q: And the “G13 hCB2” value (Log [Compound] (M) -10.5529)?
A: 309

Q: What about the “G15 hCB2” value (Log [Compound] (M) -10.5529) of the same compound?
A: 917

Q: What about the “Gq hCB2” value (Log [Compound] (M) -10.5529) of the same compound?
A: 1878

Q: What about the “Gs hCB2” value (Log [Compound] (M) -10.5529) of the same compound?
A: 9283

Q: And the “G13 hCB2” value (Log [Compound] (M) -11.0177)?
A: 377

Q: And the “G15 hCB2” value (Log [Compound] (M) -11.0177)?
A: 837

Q: What about the “Gq hCB2” value (Log [Compound] (M) -11.0177) of the same compound?
A: 1802

Q: What about the “Gs hCB2” value (Log [Compound] (M) -11.0177) of the same compound?
A: 9354

Q: What about the “G13 hCB2” value (Log [Compound] (M) -11.4949) of the same compound?
A: 335

Q: What about the “G15 hCB2” value (Log [Compound] (M) -11.4949) of the same compound?
A: 822

Q: What about the “Gq hCB2” value (Log [Compound] (M) -11.4949) of the same compound?
A: 1866

Q: And the “Gs hCB2” value (Log [Compound] (M) -11.4949)?
A: 8977

Q: What about the “G13 hCB2” value (Log [Compound] (M) -11.9208) of the same compound?
A: 361

Q: And the “G15 hCB2” value (Log [Compound] (M) -11.9208)?
A: 904

Q: What about the “Gq hCB2” value (Log [Compound] (M) -11.9208) of the same compound?
A: 1780

Q: What about the “Gs hCB2” value (Log [Compound] (M) -11.9208) of the same compound?
A: 8976

Q: What about the “G13 hCB2” value (Log [Compound] (M) -12.3979) of the same compound?
A: 355

Q: And the “G15 hCB2” value (Log [Compound] (M) -12.3979)?
A: 851

Q: What about the “Gq hCB2” value (Log [Compound] (M) -12.3979) of the same compound?
A: 1758

Q: And the “Gs hCB2” value (Log [Compound] (M) -12.3979)?
A: 8977

Q: What about the “G13 hCB2” value (Log [Compound] (M) -12.8861) of the same compound?
A: 299

Q: What about the “G15 hCB2” value (Log [Compound] (M) -12.8861) of the same compound?
A: 809

Q: And the “Gq hCB2” value (Log [Compound] (M) -12.8861)?
A: 1793

Q: What about the “Gs hCB2” value (Log [Compound] (M) -12.8861) of the same compound?
A: 9246

Q: What about the “G13 hCB2” value (Log [Compound] (M) -13) of the same compound?
A: 267 and 381

Q: What about the “G15 hCB2” value (Log [Compound] (M) -13) of the same compound?
A: 851 and 879

Q: And the “Gq hCB2” value (Log [Compound] (M) -13)?
A: 1807 and 1732

Q: And the “Gs hCB2” value (Log [Compound] (M) -13)?
A: 9386 and 9439

Q: What about the pEC50 (hCB2 Barr2 + GRK2) of the same compound?
A: 8.26

Q: What about the pEC50 (hCB2 Gi1) of the same compound?
A: 8.57

Q: What about the pEC50 (hCB2 Gi2) of the same compound?
A: 8.89

Q: What about the pEC50 (hCB2 GoB) of the same compound?
A: 8.60

Q: And the Emax (read-out: Emax [95% CI], hCB2 Barr2 + GRK2)?
A: 33%

Q: And the Emax (read-out: Emax [95% CI], hCB2 Gi1)?
A: 82%

Q: What about the Emax (read-out: Emax [95% CI], hCB2 Gi2) of the same compound?
A: 70%

Q: What about the Emax (read-out: Emax [95% CI], hCB2 GoB) of the same compound?
A: 61%

Q: And the Emax (read-out: Emax [95% CI], hCB2 Gz)?
A: 56%

From PMC11882969 (Nature Communications, 2025)
